Data published in patent publication US11980598B2, “N-(2-(substituted-naphth-1-yl)ethyl) substituted amide compound, preparation and uses thereof” (BEIJING GREATWAY PHARMACEUTICAL TECHNOLOGY CO., LTD., priority 2017, dated 2024).

Key:
[1] = background statement; cited from earlier work
CYP1A2 = CYP1A2 (Homo sapiens (Human), UniProt P05177); settings: cited from earlier work
CYP2C9 = CYP2C9 (Homo sapiens (Human), UniProt P11712); settings: first-pass effect of the liver; cited from earlier work
[2] = cited from earlier work
[3] = target: human MT2 receptor membrane protein (Homo sapiens (Human), UniProt P49286); test: MT2 receptor binding test ([3H]-Melotonin competition)
Chain of human MT2 receptor membrane protein (P49286 whole entry): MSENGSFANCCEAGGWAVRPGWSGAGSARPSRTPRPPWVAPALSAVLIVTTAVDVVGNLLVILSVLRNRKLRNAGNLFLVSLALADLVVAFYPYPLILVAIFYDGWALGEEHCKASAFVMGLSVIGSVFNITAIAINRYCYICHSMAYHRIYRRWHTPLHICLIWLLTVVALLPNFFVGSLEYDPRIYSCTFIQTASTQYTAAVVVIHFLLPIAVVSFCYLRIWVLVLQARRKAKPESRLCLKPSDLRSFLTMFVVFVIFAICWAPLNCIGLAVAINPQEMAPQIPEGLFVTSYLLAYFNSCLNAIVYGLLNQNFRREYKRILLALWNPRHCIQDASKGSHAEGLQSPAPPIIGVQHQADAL
Procedure: (§1) The receptors included a MT1/MT2 receptor and a 5-HT2C receptor. The test was divided into two parts: prescreening and rescreening. The results of prescreening were expressed as the percentage of binding, and the results of rescreening were expressed as the IC50 value (in M, i.e., mol/L).
(§2) (3) Tris-HCl buffer formulation: 50 mM Tris-HCl Buffer, 1 mM EDTA, 5 mM MgCl2, 0.1% NaN3, and then a certain proportion of PMSF was added to make pH 7.4.
(§3) (4) The example compound to be tested was dissolved in DMSO and formulated as a stock solution of 10^−2 M, and then diluted with distilled water to a concentration gradient of […]. The prescreening of the MT receptor binding test was performed at the concentration of 10^−5 M; the prescreening of the 5-HT2C receptor binding test was performed at the concentrations of 10^−5 and 10^−7 M.
(§4) The statistical analysis was performed using GraphPad Prism 5.0 software. The formula for receptor binding test was: inhibition (%)=[(total CPM of binding−CPM of tube with drug)/(total CPM of binding−non-specific CPM)]×100%, wherein CPM was count of a radioactive intensity.
(§5) 10 μL of receptor membrane protein MT1 or MT2 was added to all the tubes. In non-specific binding tubes, 50 μL of a corresponding unlabeled ligand Ago at a concentration of 10^4 M was added to a final concentration of 10 μM, and pre-reacted for 30 minutes. In test tubes, 30 μL of test drug (MT1: a concentration of 10^4-10^−10 M, MT2: a concentration of […]) was added, respectively; all tubes were added with 40 μL [^3H]-Melotonin, respectively. […] The filter paper was taken out and dried by baking, and then placed in a scintillation bottle. 1 mL of the scintillation liquid was added, and the radioactive intensity was measured by a liquid scintillation counter.

[4] = target: human MT1 receptor membrane protein (Homo sapiens (Human), UniProt P48039); test: MT1 receptor binding test ([3H]-Melotonin competition)
Chain of human MT1 receptor membrane protein (P48039 whole entry): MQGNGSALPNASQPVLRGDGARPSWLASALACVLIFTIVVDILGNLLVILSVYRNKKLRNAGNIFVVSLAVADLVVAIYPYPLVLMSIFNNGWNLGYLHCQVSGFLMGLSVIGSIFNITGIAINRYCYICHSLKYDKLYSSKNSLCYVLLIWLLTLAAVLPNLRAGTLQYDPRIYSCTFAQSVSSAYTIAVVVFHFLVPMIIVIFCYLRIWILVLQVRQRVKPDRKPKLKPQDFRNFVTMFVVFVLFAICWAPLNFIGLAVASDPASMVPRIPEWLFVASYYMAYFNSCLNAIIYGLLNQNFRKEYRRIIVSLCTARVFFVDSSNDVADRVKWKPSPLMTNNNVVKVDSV
Procedure: as §1, §2, §3, §4, §5

SD rats = test: Anxiety behavior model of repeatedly administrated rat: Vogel drinking conflict test; format: in vivo; settings: D18, within 3 minutes
Procedure: The requirements for test animals, drug formulation and administration were the same as those of the rat chronic mild stress model.
Instruments: Vogel drinking anxiety device for rat and O-maze device for rat were manufactured by Shanghai XinRuan Company. The rat feeding chamber was a home-made white plastic box (60×45×25 cm).
The rats were administrated continuously by i.g. once a day. A novelty-suppressed feeding test, a Vogel drinking conflict test, and an O-maze test were performed on a different day, respectively. Each behavior test was performed at 9:00-12:00, and the administration time was 16:00-17:00. The test process was as follows: D12, novelty-suppressed feeding test (animals were fasted for 48 hours before the test); D18, Vogel drinking conflict test (animals were banned from water for 48 hours before the test); D21, O-maze test.
The Vogel drinking anxiety device for rat connected a drinking tube of a water bottle, an electric grid and a current loop of a controller through the animal body when rat drank water. The controller can automatically record the number of times the animal drank water and can deliver an electric shock to foot sole. The rat was individually placed in the test chamber after 48 hours of water deprivation. When the animal drank 20 times in the test chamber, the controller started timing for 3 minutes, and every 20 times the rat drank, one electric shock to foot sole was delivered (0.35 mA for 2 s). The device automatically recorded the number of times the rat drank water with electric shock within 3 minutes.

Chain of CYP1A2 (P05177 whole entry): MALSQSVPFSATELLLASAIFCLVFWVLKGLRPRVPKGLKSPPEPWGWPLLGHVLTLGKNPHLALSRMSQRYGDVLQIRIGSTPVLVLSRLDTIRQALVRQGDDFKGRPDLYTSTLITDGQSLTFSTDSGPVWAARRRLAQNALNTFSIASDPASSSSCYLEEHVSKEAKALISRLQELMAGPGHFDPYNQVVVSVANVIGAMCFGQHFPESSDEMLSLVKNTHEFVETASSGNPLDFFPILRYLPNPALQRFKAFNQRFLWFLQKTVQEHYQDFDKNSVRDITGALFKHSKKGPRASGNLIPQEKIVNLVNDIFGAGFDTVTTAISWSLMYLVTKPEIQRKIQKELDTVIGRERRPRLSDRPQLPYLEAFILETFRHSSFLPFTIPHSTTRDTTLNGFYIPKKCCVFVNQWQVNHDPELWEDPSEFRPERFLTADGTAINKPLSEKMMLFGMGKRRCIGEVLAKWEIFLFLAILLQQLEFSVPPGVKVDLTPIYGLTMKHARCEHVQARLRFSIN
Chain of CYP2C9 (P11712 whole entry): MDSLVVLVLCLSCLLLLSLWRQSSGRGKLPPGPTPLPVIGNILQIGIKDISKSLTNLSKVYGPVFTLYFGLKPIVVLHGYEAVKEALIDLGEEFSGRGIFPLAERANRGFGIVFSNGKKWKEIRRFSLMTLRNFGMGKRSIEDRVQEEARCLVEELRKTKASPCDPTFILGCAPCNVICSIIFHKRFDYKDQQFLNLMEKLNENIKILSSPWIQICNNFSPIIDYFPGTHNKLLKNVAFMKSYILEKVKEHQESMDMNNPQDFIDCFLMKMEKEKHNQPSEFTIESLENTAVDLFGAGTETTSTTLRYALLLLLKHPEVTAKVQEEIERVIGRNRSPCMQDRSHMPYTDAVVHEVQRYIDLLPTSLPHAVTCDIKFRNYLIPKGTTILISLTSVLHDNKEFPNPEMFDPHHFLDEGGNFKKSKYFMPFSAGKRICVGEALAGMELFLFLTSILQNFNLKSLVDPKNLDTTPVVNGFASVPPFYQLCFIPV

| Structure (SMILES) | absolute bioavailability [1] | oral absorption [1] | share metabolized by CYP1A2 (CYP1A2) | share metabolized by CYP2C9 (CYP2C9) | patients with an increase in ALT/AST (three times above the normal upper limit) [2] | MT2 binding ratio (I %) ([3]; prescreening, 10^−5 M) | IC50 ([3]; rescreening) | MT1 binding ratio (I %) ([4]; prescreening, 10^−5 M) | IC50 ([4]; rescreening) | Number of times drinking water with electric shock (s) (SD rats; 5 mg/kg i.g. once a day) | Number of times drinking water with electric shock (s) (SD rats; 10 mg/kg i.g. once a day) | Number of times drinking water with electric shock (s) (SD rats; 20 mg/kg i.g. once a day) | Number of times drinking water with electric shock (s) (SD rats; 40 mg/kg i.g. once a day) |
| --- | --- | --- | --- | --- | --- | --- | --- | --- | --- | --- | --- | --- | --- |
| COc1ccc2cccc(CCNC(C)=O)c2c1 [Agomelatine, reference compound] | below 5% | over 80% | about 90% | about 10% | more than 1% |  |  |  |  |  |  |  |  |
| [2H]C([2H])([2H])Oc1cc2c(CCNC(C)=O)cccc2cc1Cl [Example 1, N-(2-(6-chloro-7-deuteromethoxy-naphthalen-1-yl)ethyl)acetamide] |  |  |  |  |  | 98% | 0.72 ± 0.13 nM | 84% | 0.45 ± 0.26 nM | 76 ± 11 number of licks (count) | 159 ± 14 number of licks (count) | 172 ± 25 number of licks (count) | 213 ± 20 number of licks (count) |
